# Source: publication PMC12445744, “Molecular docking to homology models of human and Trypanosoma brucei ERK8 that identified ortholog-specific inhibitors” (PLOS Neglected Tropical Diseases, 2025)
# Where “and” joins values, the source holds several entries; their conditions need not be identical. Equal entries are not always repeated.
# Target: T1, HsERK8 (Homo sapiens, UniProt Q8TD08)
# T1 construct: plasmid pGEX2T expressing the full-length hERK8 coding region; made in house; host or cells: Escherichia coli Rosetta 2 (DE3)
# T1 sequence (Q8TD08 1-544): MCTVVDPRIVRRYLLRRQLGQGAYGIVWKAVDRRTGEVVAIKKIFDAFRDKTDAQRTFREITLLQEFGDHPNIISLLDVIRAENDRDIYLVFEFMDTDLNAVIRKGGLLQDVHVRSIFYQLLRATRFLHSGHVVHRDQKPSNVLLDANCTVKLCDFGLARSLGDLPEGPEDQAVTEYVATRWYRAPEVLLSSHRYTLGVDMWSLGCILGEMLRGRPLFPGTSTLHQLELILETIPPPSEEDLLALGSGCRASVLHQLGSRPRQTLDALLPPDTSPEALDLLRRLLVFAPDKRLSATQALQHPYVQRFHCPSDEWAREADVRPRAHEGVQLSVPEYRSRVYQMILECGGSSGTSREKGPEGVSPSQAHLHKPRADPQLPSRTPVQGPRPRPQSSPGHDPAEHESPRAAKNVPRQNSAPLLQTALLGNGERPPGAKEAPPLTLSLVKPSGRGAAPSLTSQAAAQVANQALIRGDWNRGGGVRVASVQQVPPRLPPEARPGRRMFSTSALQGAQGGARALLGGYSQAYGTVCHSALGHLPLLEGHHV
# Assay: Luciferase-based kinase inhibition assay (ATP luminescence), GST-tagged HsERK8 with MBP substrate
# Type: biochemical
# Conditions: for raw luminescence, HsERK8: sheet Kinase_glo_080924_IFPS (2), replicate wells, listed as Ida
# Procedure: Escherichia coli strain Rosetta 2 (DE3) (Cat# 71397, MilliporeSigma, Burlington, MA) was transformed with the plasmid pGEX2T expressing the full-length hERK8 coding region or pGSTAg expressing the full-length TbERK8 coding region. One liter of Terrific Broth media containing 100 μg/ml Ampicillin and 30 μg/ml chloramphenicol in 2 L baffled flasks was inoculated with 25 mL from an overnight culture of Rosetta 2 strains harboring either the pGEX2T-hERK8 or pGSTAg-TbERK8 plasmid. Two baffled flasks were inoculated with each overnight strain and incubated and shaken at 175 RPM in a New Brunswick Innova 44R Incubator Shaker (Fischer Scientific, Pittsburgh, PA) at 37 °C until the cultures reached an O.D.600 of 0.94. Once the cultures in the flask reached the target O.D.600, the flasks were cooled to 4 °C in an ice water bath. The cooled cultures were induced by adding isopropyl β-D-1-thiogalactopyranoside (IPTG) to a final concentration of 0.1 mM and shaken at 16 °C for 16 hours at 175 RPM in a New Brunswick Innova 44R Incubator Shaker (Fischer Scientific, Pittsburgh, PA). On the next day, the cultures were pelleted by centrifugation at 9000 xg in a JLA 10.500 rotor (Beckman Coulter; Brea, CA), and the media was decanted. The pellet was flash-frozen in liquid nitrogen and then thawed on ice. The thawed pellet was resuspended in lysis buffer (25 mM Tris, 75 mM NaCl, 0.5% TritonX-100 and 0.5% Nonidet P-40, 1 mM phenylmethanesulfonyl fluoride, 1 mM benzamidine⋅HCl) and lysed using a microfluidizer M-110P from Microfluidics (Westwood, MA). The crude lysates were clarified by centrifugation at 140,000 xg in a 45Ti rotor (Beckman Coulter, Brea, CA) for 30 min at 4°C. The clarified lysate was loaded by gravity to a 3 mL glutathione agarose resin column (Cat# G-250–10, GOLDBIO, St. Louis, MO) formed in a 1.5 × 20 cm glass chromatography column (Cat# 7371522, Bio-Rad, Hercules, CA). The column was washed with 30 mL of PBS (pH 7.4) containing 1 mM DTT. Elution buffer (50 mM Tris buffer pH 8.0 containing 10 mM reduced glutathione and 1 mM DTT was added to the washed column), and 1 mL fractions were collected by gravity and examined by SDS-PAGE stained by Coomassie dye. Peak fractions pooled from the elution were dialyzed (4x 1:500 dilutions) in kinase buffer (30 mM Tris, pH 7.4, 10 mM MgCl2, 1 mM DTT, 5% glycerol).
# We performed kinase assays in buffer K (30 mM Tris pH 7.4, 10 mM MgCl2, 1 mM DTT, 5% glycerol, 50 μM ATP, and 0.1 mg/mL BSA) at 30°C for 30 min in 30 μL reactions. GST-tagged HsERK8 and TbERK8 were tested using myelin basic protein (MBP) (Cat# 13–110, Millipore, Darmstadt, Germany) as the substrate at increasing concentrations to determine the optimal activity for the assay. ATP consumption was determined by adding equal volumes of the kinase assay reagent (Promega, Cat# V5601, Madison, WI) following the manufacturer’s protocol. Luminescence was measured using the microplate reader (SpectraMax L, Molecular Devices, Sunnyvale, CA).
# These compounds were screened for kinase inhibition utilizing a luciferase-based assay. Briefly, the kinases were tested using MBP as the substrate at a 14-fold molar excess in 384-well flat-bottom white plates (BRANDTECH Scientific, Cat# 781681, Essex, CT). These compounds were tested at concentrations ranging from […] to 150 nM. The kinases plus MBP substrate reactions were incubated with each inhibitor for 30 minutes at 30°C. Equal volumes of kinase assay mix Promega (Cat# V5601, Madison, WI) were added to the kinase/inhibitor reaction after 30 minutes, following the manufacturer’s protocol. ATP luminescence was measured using a microplate reader (SpectraMax L, Molecular Devices, Sunnyvale, CA). IC50 values were calculated from assays done in triplicate by fitting the data using Prism 8.1.1 (GraphPad).
smiles,measurement,setting,value
CC(=O)[C@]1(O)Cc2c(O)c3c(c(O)c2[C@@H](O[C@H]2C[C@H](N)[C@H](O)[C@H](C)O2)C1)C(=O)c1ccccc1C3=O [Idarubicin],"raw luminescence, HsERK8",0.00015 mM compound,5033.01 RLU and 5464.22 RLU and 4680.41 RLU
same,"raw luminescence, HsERK8",0.00061 mM compound,4929.7 RLU and 5104.88 RLU and 5152.04 RLU
same,"raw luminescence, HsERK8",0.00244 mM compound,4819.65 RLU and 4756.77 RLU and 4179.58 RLU
same,"raw luminescence, HsERK8",0.00977 mM compound,4606.3 RLU and 4691.64 RLU and 4170.6 RLU
same,"raw luminescence, HsERK8",0.03906 mM compound,4799.44 RLU and 4835.38 RLU and 4925.21 RLU
same,"raw luminescence, HsERK8",0.15625 mM compound,4702.87 RLU and 5131.83 RLU and 4550.15 RLU
same,"raw luminescence, HsERK8",0.62500 mM compound,4750.03 RLU and 4873.56 RLU and 4527.69 RLU
same,"raw luminescence, HsERK8",2.50000 mM compound,3723.67 RLU and 3768.58 RLU and 3368.82 RLU
same,"raw luminescence, HsERK8","10.00000 mM compound, signal = ATP left",988.186 RLU and 1334.05 RLU and 1307.1 RLU
same,inhibitory effect on kinase activity of HsERK8,concentrations below 4.0 x10^-5 M (above this the red compound blocked luminescence),no detectible (n/d) inhibitory effect
